For orientation: inhibition means the drop in the measured response relative to a control, in per cent. Lower therefore signals a weak effect.

Each structure is given as a SMILES string.

What all share (type): functional
Test [1] is filed under the species Rattus norvegicus. The test is described as follows: % inhibition of cyclic AMP production in homogenates of rat corpus striatum pre-incubated with 0 uM of NCA and 50 uM of DA.
The species named for test [2] is Rattus norvegicus. The test is described as follows: % stimulation of cyclic AMP production in homogenates of rat corpus striatum preincubated with 30 uM of NCA and 0 uM of DA.
The species entered for test [3] is Rattus norvegicus. The test is described as follows: % inhibition of cyclic AMP production in homogenates of rat corpus striatum pre-incubated with 0 uM of NCA and 0 uM of DA.
The species named for test [4] is Rattus norvegicus. The test is described as follows: % stimulation of cyclic AMP production in homogenates of rat corpus striatum pre-incubated with 30 uM of NCA and 50 uM of DA.
The species named for test [5] is Rattus norvegicus. The test is described as follows: % inhibition of cyclic AMP production in homogenates of rat corpus striatum pre-incubated with 10 uM of NCA and 0 uM of DA.
Test [6] is filed under the species Rattus norvegicus. The test is described as follows: % stimulation of cyclic AMP production in homogenates of rat corpus striatum pre-incubated with 10 uM of NCA and 0 uM of DA.
The species entered for test [7] is Rattus norvegicus. The test is described as follows: % inhibition of cyclic AMP production in homogenates of rat corpus striatum pre-incubated with 30 uM of NCA and 50 uM of DA.
The species entered for test [8] is Rattus norvegicus. The test is described as follows: % stimulation of cyclic AMP production in homogenates of rat corpus striatum pre-incubated with 75 uM of NCA and 0 uM of DA.
Test [9] is filed under the species Rattus norvegicus. The test is described as follows: % inhibition of cyclic AMP production in homogenates of rat corpus striatum pre-incubated with 30 uM of NCA and 0 uM of DA.
For test [10], the species on record is Rattus norvegicus. The test is described as follows: % stimulation of cyclic AMP production in homogenates of rat corpus striatum pre-incubated with 0 uM of NCA and 0 uM of DA.
For test [11], the species on record is Rattus norvegicus. The test is described as follows: % stimulation of cyclic AMP production in homogenates of rat corpus striatum pre-incubated with 0 uM of NCA and 50 uM of DA.
For test [12], the species on record is Rattus norvegicus. The test is described as follows: % inhibition of cyclic AMP production in homogenates of rat corpus striatum pre-incubated with 75 uM of NCA and 0 uM of DA.

With `Oc1ccc2c(c1O)-c1cccc3c1[C@@H](C2)N(CCCl)CC3`, the inhibition was found to be 2% in test [1]; 0% in [3]; 16% in test [5]; 3% in test [7]; 56% in [9]; 92% in [12]. In addition, the Stimulation worked out at 43.9% in test [2]; 103% in [4]; 83.9% in test [6]; 8.1% in test [8]; 100% in test [10]; 98% in test [11].

The values are drawn from ChEMBL document CHEMBL1121605, “Aporphines. 30. (-)-N(2-chloroethyl)-10,11-dihydroxynor-aporphine (chloroethylnorapomorphine), a novel irreversible dopamine receptor antagonist” (J Med Chem, 1980).
